From paper PMC11062899, “De novo development of small cyclic peptides that are orally bioavailable” (Nature Chemical Biology, 2023)
Values joined by “and” are separate entries in the source; they are usually repeats but may differ in a detail not shown here. Identical values can stand only once. Like-named read-outs stand apart in the source and are kept apart here.

Columns and labels:
rat α-thrombin = target: T1, rat α-thrombin (Rattus norvegicus, UniProt P18292); test: Protease inhibition, Ki for rat α-thrombin (fluorogenic substrate Z-Gly-Gly-Arg-AMC); assay type: biochemical; settings: for slope normalized to DMSO, rat alpha thrombin inhibition: replicates R1-R3
T1 construct: rat α-thrombin (Molecular Innovations) were used at final concentrations of 2 nM and 3 nM; purchased Molecular Innovations
In short: (§1)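 Ki values come from Cheng–Prusoff correction of IC50, itself fitted by four-parameter logistic regression of activity versus a no-peptide control. Assays used 2 nM human or 3 nM rat thrombin, 50 μM Z-Gly-Gly-Arg-AMC, 30 min kinetic fluorescence at 25 °C.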

human α-thrombin = human α-thrombin (Homo sapiens, UniProt P00734); test: Protease inhibition, Ki for human α-thrombin (fluorogenic substrate Z-Gly-Gly-Arg-AMC); assay type: biochemical; settings: for slope normalized to DMSO, human alpha thrombin inhibition: replicates R1-R3
In short: as §1

[1] = Passive artificial membrane permeability (PAMPA);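 as to Permeability% Average: top well sample relative to theoretical equilibrium sample by TIC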
[2] = Peptide stability in simulated intestinal fluid (SIF); assay type: in vitro ADME, porcine; settings: pig, simulated gi fluid; 8 h, 37 °C, pH 6.8; read-out: Proteolytic stability: SIF (8 h) % remaining
In short: (§2)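 Peptide from a 1 mM DMSO stock was added to fluid pre-warmed at 37 °C. SGF was pH 1.2 NaCl with porcine pepsin (0.32 g per 100 ml), and SIF was pH 6.8 potassium phosphate with porcine pancreatin (1 g per 100 ml). Supernatant peptide was quantified by LC–MS, with residual expressed as T1/T0.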

porcine pepsin = target: T2, porcine pepsin (Sus scrofa, UniProt P00791); test: Peptide stability in simulated gastric fluid (SGF); assay type: in vitro ADME; settings: pig, simulated gi fluid; 8 h, 37 °C, pH 1.2; read-out: Proteolytic stability: SGF (8 h) % remaining
T2 construct: 0.32 g of porcine pepsin (Sigma-Aldrich, P7125) was dissolved under gentle agitation; purchased Sigma-Aldrich P7125
T2 sequence (P00791 60-385): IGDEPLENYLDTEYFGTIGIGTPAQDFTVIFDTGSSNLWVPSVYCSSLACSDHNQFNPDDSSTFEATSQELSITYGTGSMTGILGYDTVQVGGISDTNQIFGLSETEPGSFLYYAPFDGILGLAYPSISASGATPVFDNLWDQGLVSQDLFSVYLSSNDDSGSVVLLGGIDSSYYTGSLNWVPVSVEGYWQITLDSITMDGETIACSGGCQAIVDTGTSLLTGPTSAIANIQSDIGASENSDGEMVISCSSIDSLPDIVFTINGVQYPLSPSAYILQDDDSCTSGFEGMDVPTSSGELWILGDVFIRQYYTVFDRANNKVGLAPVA
In short: as §2

## O=C1C[C@H]2CCCN2C(=O)[C@H](Cc2ccccc2)NC(=O)[C@@H](NC(=O)c2ccc(Cl)cc2)CCC=CCCCCN1 (mixture of isomers) [peptide 46]
Rat α-thrombin; individual replicates R1-R3, read-out: IC50, rat alpha thrombin inhibition
  IC50: 18.6 nM and 18.8 nM and 18.2 nM
Rat α-thrombin; individual replicates R1-R3, read-out: Ki, rat alpha thrombin inhibition
  Ki: 10.3 nM and 10.4 nM and 10.1 nM
Rat α-thrombin; peptide 1.00E+02 uM
  slope normalized to DMSO, rat alpha thrombin inhibition: 8.3 and 7.3 and 7.2
Rat α-thrombin; peptide 1.19E-05 uM
  slope normalized to DMSO, rat alpha thrombin inhibition: 99.4 and 100.3 and 100.6
Rat α-thrombin; peptide 1.22E-02 uM
  slope normalized to DMSO, rat alpha thrombin inhibition: 60.3 and 60.4 and 59.6
Rat α-thrombin; peptide 1.25E+01 uM
  slope normalized to DMSO, rat alpha thrombin inhibition: 5.7 and 8.0 and 8.3
Rat α-thrombin; peptide 1.53E-03 uM
  slope normalized to DMSO, rat alpha thrombin inhibition: 88.8 and 87.9 and 87.4
Rat α-thrombin; peptide 1.56E+00 uM
  slope normalized to DMSO, rat alpha thrombin inhibition: 10.8 and 10.2 and 9.8
Rat α-thrombin; peptide 1.91E-04 uM
  slope normalized to DMSO, rat alpha thrombin inhibition: 94.6 and 95.0 and 96.1
Rat α-thrombin; peptide 1.95E-01 uM
  slope normalized to DMSO, rat alpha thrombin inhibition: 21.1 and 20.0 and 19.8
Rat α-thrombin; peptide 2.38E-05 uM
  slope normalized to DMSO, rat alpha thrombin inhibition: 96.3 and 97.7 and 98.1
Rat α-thrombin; peptide 2.44E-02 uM
  slope normalized to DMSO, rat alpha thrombin inhibition: 48.7 and 49.3 and 48.8
Rat α-thrombin; peptide 2.50E+01 uM
  slope normalized to DMSO, rat alpha thrombin inhibition: 12.0 and 7.7 and 6.9
Rat α-thrombin; peptide 3.05E-03 uM
  slope normalized to DMSO, rat alpha thrombin inhibition: 80.9 and 81.1 and 81.9
Rat α-thrombin; peptide 3.12E+00 uM
  slope normalized to DMSO, rat alpha thrombin inhibition: 9.6 and 9.4 and 8.9
Rat α-thrombin; peptide 3.81E-04 uM
  slope normalized to DMSO, rat alpha thrombin inhibition: 92.9 and 94.7 and 94.0
Rat α-thrombin; peptide 3.91E-01 uM
  slope normalized to DMSO, rat alpha thrombin inhibition: 15.0 and 14.0 and 13.6
Rat α-thrombin; peptide 4.77E-05 uM
  slope normalized to DMSO, rat alpha thrombin inhibition: 95.4 and 96.4 and 96.6
Rat α-thrombin; peptide 4.88E-02 uM
  slope normalized to DMSO, rat alpha thrombin inhibition: 33.7 and 33.6 and 33.1
Rat α-thrombin; peptide 5.00E+01 uM
  slope normalized to DMSO, rat alpha thrombin inhibition: 7.6 and 7.2 and 7.4
Rat α-thrombin; peptide 6.10E-03 uM
  slope normalized to DMSO, rat alpha thrombin inhibition: 72.8 and 73.4 and 73.0
Rat α-thrombin; peptide 6.25E+00 uM
  slope normalized to DMSO, rat alpha thrombin inhibition: 10.1 and 8.5 and 8.3
Rat α-thrombin; peptide 7.63E-04 uM
  slope normalized to DMSO, rat alpha thrombin inhibition: 91.2 and 92.2 and 91.3
Rat α-thrombin; peptide 7.81E-01 uM
  slope normalized to DMSO, rat alpha thrombin inhibition: 13.0 and 11.7 and 11.5
Rat α-thrombin; peptide 9.54E-05 uM
  slope normalized to DMSO, rat alpha thrombin inhibition: 95.8 and 95.1 and 95.6
Rat α-thrombin; peptide 9.77E-02 uM
  slope normalized to DMSO, rat alpha thrombin inhibition: 26.6 and 25.4 and 25.1
Human α-thrombin; average of R1-R3, read-out: Ki Average, human alpha thrombin inhibition
  Ki: 65.1 nM
Human α-thrombin; individual replicates R1-R3, read-out: IC50, human alpha thrombin inhibition
  IC50: 94.1 nM and 79.8 nM and 79.7 nM
Human α-thrombin; individual replicates R1-R3, read-out: Ki, human alpha thrombin inhibition
  Ki: 72.5 nM (2×) and 61.5 nM (2×) and 61.4 nM (2×)
Human α-thrombin; peptide 1.00E+02 uM
  slope normalized to DMSO, human alpha thrombin inhibition: 10.4 and 9.8 and 9.9
Human α-thrombin; peptide 1.19E-05 uM
  slope normalized to DMSO, human alpha thrombin inhibition: 103.8 and 104.1 and 105.5
Human α-thrombin; peptide 1.22E-02 uM
  slope normalized to DMSO, human alpha thrombin inhibition: 87.6 and 86.9 (2×)
Human α-thrombin; peptide 1.25E+01 uM
  slope normalized to DMSO, human alpha thrombin inhibition: 5.3 and 12.2 and 12.4
Human α-thrombin; peptide 1.53E-03 uM
  slope normalized to DMSO, human alpha thrombin inhibition: 101.5 and 101.1 and 102.6
Human α-thrombin; peptide 1.56E+00 uM
  slope normalized to DMSO, human alpha thrombin inhibition: 20.2 and 17.9 and 18.1
Human α-thrombin; peptide 1.91E-04 uM
  slope normalized to DMSO, human alpha thrombin inhibition: 103.2 and 104.0 and 103.7
Human α-thrombin; peptide 1.95E-01 uM
  slope normalized to DMSO, human alpha thrombin inhibition: 45.4 and 43.2 and 43.8
Human α-thrombin; peptide 2.38E-05 uM
  slope normalized to DMSO, human alpha thrombin inhibition: 104.8 and 104.2 and 105.6
Human α-thrombin; peptide 2.44E-02 uM
  slope normalized to DMSO, human alpha thrombin inhibition: 80.1 and 79.6 and 79.3
Human α-thrombin; peptide 2.50E+01 uM
  slope normalized to DMSO, human alpha thrombin inhibition: 11.9 and 11.0 and 10.5
Human α-thrombin; peptide 3.05E-03 uM
  slope normalized to DMSO, human alpha thrombin inhibition: 97.6 and 98.1 and 98.6
Human α-thrombin; peptide 3.12E+00 uM
  slope normalized to DMSO, human alpha thrombin inhibition: 16.0 and 13.3 and 14.6
Human α-thrombin; peptide 3.81E-04 uM
  slope normalized to DMSO, human alpha thrombin inhibition: 102.7 and 102.9 and 102.6
Human α-thrombin; peptide 3.91E-01 uM
  slope normalized to DMSO, human alpha thrombin inhibition: 32.0 and 29.5 and 28.9
Human α-thrombin; peptide 4.77E-05 uM
  slope normalized to DMSO, human alpha thrombin inhibition: 102.3 and 105.2 and 103.4
Human α-thrombin; peptide 4.88E-02 uM
  slope normalized to DMSO, human alpha thrombin inhibition: 66.2 and 64.4 and 64.1
Human α-thrombin; peptide 5.00E+01 uM
  slope normalized to DMSO, human alpha thrombin inhibition: 11.3 and 10.4 and 8.0
Human α-thrombin; peptide 6.10E-03 uM
  slope normalized to DMSO, human alpha thrombin inhibition: 94.3 and 94.6 and 94.4
Human α-thrombin; peptide 6.25E+00 uM
  slope normalized to DMSO, human alpha thrombin inhibition: 14.8 and 13.5 (2×)
Human α-thrombin; peptide 7.63E-04 uM
  slope normalized to DMSO, human alpha thrombin inhibition: 99.9 and 102.3 and 103.3
Human α-thrombin; peptide 7.81E-01 uM
  slope normalized to DMSO, human alpha thrombin inhibition: 26.0 and 24.0 (2×)
Human α-thrombin; peptide 9.54E-05 uM
  slope normalized to DMSO, human alpha thrombin inhibition: 102.8 and 104.6 and 103.3
Human α-thrombin; peptide 9.77E-02 uM
  slope normalized to DMSO, human alpha thrombin inhibition: 53.1 and 52.5
[1]; 50 μM, 12–18 h, acceptor concentration relative to equilibrium
  PAMPA permeability: % permeability: 55 ± 8%
[1]; 50 μM, 12 h (Fig. 6d)
  Permeability% (single replicates R1–R3): 49.41% and 50.43% and 63.83%
  Permeability% Average: 54.6%
[1]; PAMPA, pH 7.4
  Papp at 50 μM: 7.76 ×10⁻⁶ cm/s
[2]
  remaining at 8 h: 93 ± 12%
Porcine pepsin
  remaining at 8 h: 96 ± 12%
